Assay results published in PubChem BioAssay (NCI).
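Five concentrations, 48 hours, 96-well plates. The concentration for full growth arrest is given as TGI.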

Assays:
Test in all cases: DTP human tumour cell line panel, 48 h
786-0 renal = system: 786-0 renal
A498 renal = system: A498 renal
A549 NSCLC = system: A549 NSCLC
ACHN renal = system: ACHN renal
CAKI-1 renal = system: CAKI-1 renal
CCRF-CEM leukemia = system: CCRF-CEM leukemia
COLO 205 colon = system: COLO 205 colon
EKVX NSCLC = system: EKVX NSCLC
HCC-2998 colon = system: HCC-2998 colon
HCT-116 colon = system: HCT-116 colon
HCT-15 colon = system: HCT-15 colon
HL-60(TB) leukemia = system: HL-60(TB) leukemia
HOP-62 NSCLC = system: HOP-62 NSCLC
HOP-92 NSCLC = system: HOP-92 NSCLC
HS 578T breast = system: HS 578T breast
HT29 colon = system: HT29 colon
IGROV1 ovarian = system: IGROV1 ovarian
K-562 leukemia = system: K-562 leukemia
KM12 colon = system: KM12 colon
M14 melanoma = system: M14 melanoma
MALME-3M melanoma = system: MALME-3M melanoma
MCF7 breast = system: MCF7 breast
MDA-N = system: MDA-N
MOLT-4 leukemia = system: MOLT-4 leukemia
NCI-H23 lung = system: NCI-H23 lung
NCI-H460 lung = system: NCI-H460 lung
NCI/ADR-RES ovarian = system: NCI/ADR-RES ovarian
OVCAR-4 ovarian = system: OVCAR-4 ovarian
OVCAR-5 ovarian = system: OVCAR-5 ovarian
OVCAR-8 ovarian = system: OVCAR-8 ovarian
PC-3 prostate = system: PC-3 prostate
RPMI-8226 leukemia = system: RPMI-8226 leukemia
RXF 393 renal = system: RXF 393 renal
SF-268 CNS = system: SF-268 CNS
SF-295 CNS = system: SF-295 CNS
SK-MEL-28 melanoma = system: SK-MEL-28 melanoma
SK-MEL-5 melanoma = system: SK-MEL-5 melanoma
SK-OV-3 ovarian = system: SK-OV-3 ovarian
SNB-19 CNS = system: SNB-19 CNS
SNB-75 CNS = system: SNB-75 CNS
SR leukemia = system: SR leukemia
SW-620 colon = system: SW-620 colon
T-47D breast = system: T-47D breast
TK-10 renal = system: TK-10 renal
U251 CNS = system: U251 CNS
UACC-257 melanoma = system: UACC-257 melanoma
UO-31 renal = system: UO-31 renal
BT-549 breast = system: BT-549 breast
DU-145 prostate = system: DU-145 prostate
LOX IMVI melanoma = system: LOX IMVI melanoma
MDA-MB-231 breast = system: MDA-MB-231 breast
MDA-MB-435 = system: MDA-MB-435
NCI-H226 lung = system: NCI-H226 lung
NCI-H522 lung = system: NCI-H522 lung
OVCAR-3 ovarian = system: OVCAR-3 ovarian
SF-539 CNS = system: SF-539 CNS
SK-MEL-2 melanoma = system: SK-MEL-2 melanoma
SN12C renal = system: SN12C renal
UACC-62 melanoma = system: UACC-62 melanoma

## CC(O[Si](c1ccccc1)(c1ccccc1)C(C)(C)C)[C@H](NC(=O)OC(C)(C)C)C(=O)O (stereo not given in full)
786-0 renal
  TGI: > 100 µM
A498 renal
  TGI: > 100 µM
A549 NSCLC
  TGI: > 100 µM
ACHN renal
  TGI: > 100 µM
CAKI-1 renal
  TGI: > 100 µM
CCRF-CEM leukemia
  TGI: > 100 µM
COLO 205 colon
  TGI: 46.1 µM
EKVX NSCLC
  TGI: > 100 µM
HCC-2998 colon
  TGI: > 100 µM
HCT-116 colon
  TGI: > 100 µM
HCT-15 colon
  TGI: 79.7 µM
HL-60(TB) leukemia
  TGI: 59.8 µM
HOP-62 NSCLC
  TGI: > 100 µM
HOP-92 NSCLC
  TGI: 78.1 µM
HS 578T breast
  TGI: > 100 µM
HT29 colon
  TGI: > 100 µM
IGROV1 ovarian
  TGI: 50.2 µM
K-562 leukemia
  TGI: > 100 µM
KM12 colon
  TGI: > 100 µM
M14 melanoma
  TGI: > 100 µM
MALME-3M melanoma
  TGI: > 100 µM
MCF7 breast
  TGI: > 100 µM
MDA-N
  TGI: 97.1 µM
MOLT-4 leukemia
  TGI: 46.1 µM
NCI-H23 lung
  TGI: > 100 µM
NCI-H460 lung
  TGI: > 100 µM
NCI/ADR-RES ovarian
  TGI: > 100 µM
OVCAR-4 ovarian
  TGI: > 100 µM
OVCAR-5 ovarian
  TGI: > 100 µM
OVCAR-8 ovarian
  TGI: > 100 µM
PC-3 prostate
  TGI: 56.8 µM
RPMI-8226 leukemia
  TGI: > 100 µM
RXF 393 renal
  TGI: > 100 µM
SF-268 CNS
  TGI: > 100 µM
SF-295 CNS
  TGI: > 100 µM
SK-MEL-28 melanoma
  TGI: > 100 µM
SK-MEL-5 melanoma
  TGI: 50.8 µM
SK-OV-3 ovarian
  TGI: > 100 µM
SNB-19 CNS
  TGI: > 100 µM
SNB-75 CNS
  TGI: > 100 µM
SR leukemia
  TGI: 90.2 µM
SW-620 colon
  TGI: > 100 µM
T-47D breast
  TGI: > 100 µM
TK-10 renal
  TGI: > 100 µM
U251 CNS
  TGI: > 100 µM
UACC-257 melanoma
  TGI: > 100 µM
UO-31 renal
  TGI: > 100 µM

## COc1ccc2c(-c3ccc(O)cc3)c(Oc3ccc(Cl)cc3)c(=O)oc2c1
786-0 renal
  TGI: > 35.1 µM
A498 renal
  TGI: 22.5 µM
A549 NSCLC
  TGI: > 29.5 µM
ACHN renal
  TGI: > 37.7 µM
BT-549 breast
  TGI: 23.3 µM
CAKI-1 renal
  TGI: 10.2 µM
CCRF-CEM leukemia
  TGI: > 100 µM
COLO 205 colon
  TGI: > 36.5 µM
DU-145 prostate
  TGI: 24.7 µM
EKVX NSCLC
  TGI: 12.5 µM
HCC-2998 colon
  TGI: 25.7 µM
HCT-116 colon
  TGI: > 33.6 µM
HCT-15 colon
  TGI: 17.6 µM
HOP-62 NSCLC
  TGI: 44.2 µM
HOP-92 NSCLC
  TGI: 23.7 µM
HS 578T breast
  TGI: 16.8 µM
HT29 colon
  TGI: > 38.1 µM
IGROV1 ovarian
  TGI: 9.99 µM
K-562 leukemia
  TGI: > 57.8 µM
KM12 colon
  TGI: 22.6 µM
LOX IMVI melanoma
  TGI: > 44.9 µM
M14 melanoma
  TGI: 17.9 µM
MALME-3M melanoma
  TGI: 13.8 µM
MCF7 breast
  TGI: > 23.1 µM
MDA-MB-231 breast
  TGI: 20.6 µM
MDA-MB-435
  TGI: 25.7 µM
MDA-N
  TGI: 23.2 µM
MOLT-4 leukemia
  TGI: > 29.9 µM
NCI-H226 lung
  TGI: > 43.3 µM
NCI-H23 lung
  TGI: 8.32 µM
NCI-H460 lung
  TGI: 19.8 µM
NCI-H522 lung
  TGI: 6.53 µM
NCI/ADR-RES ovarian
  TGI: > 46 µM
OVCAR-3 ovarian
  TGI: 12.3 µM
OVCAR-4 ovarian
  TGI: 25.4 µM
OVCAR-5 ovarian
  TGI: 21.4 µM
OVCAR-8 ovarian
  TGI: > 48.8 µM
PC-3 prostate
  TGI: 24.4 µM
RPMI-8226 leukemia
  TGI: 20.8 µM
RXF 393 renal
  TGI: 25 µM
SF-268 CNS
  TGI: 24.6 µM
SF-295 CNS
  TGI: 23 µM
SF-539 CNS
  TGI: 28.8 µM
SK-MEL-2 melanoma
  TGI: 11.2 µM
SK-MEL-28 melanoma
  TGI: 23.1 µM
SK-MEL-5 melanoma
  TGI: 10.4 µM
SK-OV-3 ovarian
  TGI: 44.9 µM
SN12C renal
  TGI: 19.2 µM
SNB-19 CNS
  TGI: 24.2 µM
SNB-75 CNS
  TGI: 33.8 µM
SR leukemia
  TGI: > 28.5 µM
SW-620 colon
  TGI: > 32 µM
T-47D breast
  TGI: > 100 µM
TK-10 renal
  TGI: > 22.7 µM
U251 CNS
  TGI: 20.1 µM
UACC-257 melanoma
  TGI: 41 µM
UACC-62 melanoma
  TGI: 18.6 µM
UO-31 renal
  TGI: 13.6 µM
